From patent publication US8017612B2, “Piperazine compound and use thereof as a HCV polymerase inhibitor” (priority 2006, dated 2011)

Experiments:
[1] = target: T1, HCV polymerase (NS5B) type 1b (Hepatitis C virus genotype 1b, UniProt P26663); assay: Assay of enzyme (HCV polymerase) inhibitory activity, type 1b enzyme; assay type: biochemical, HCV BK strain (type 1b)
T1 construct: a region encoding NS5B (J Virol 1991 March, 65(3), 1105-13, 544 amino acids after deletion of 47 amino acids on the C-terminal); 6xHis (C); made in house; host or cells: Escherichia coli
In short: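 NS5B from HCV BK strain (type 1b), C-terminal 47 aa deleted, C-terminal His6-tagged, E. coli-expressed, 0.5 μg/ml, with ~450 nt substrate RNA carrying the 3′ UTR (polyU, 3′X) at 5 μg/ml. Incubation 60 min at 25 °C with 50 μM ATP/GTP/CTP, 2 μM UTP plus [3H]UTP, pH 7.5 Tris.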

[2] = target: T2, HCV polymerase (NS5B) type 1a (Hepatitis C virus genotype 1a, UniProt P26664); assay: Assay of enzyme (HCV polymerase) inhibitory activity, type 1a enzyme; assay type: biochemical, HCV type 1a (cloned from the blood of patients)
T2 construct: made in house; host or cells: Escherichia coli (by the 'similar method' of the 1b enzyme)
In short: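 Patient-derived type 1a NS5B (C-terminal 47-aa deletion, His-tagged, E. coli-expressed) at 1.5 μg/ml was reacted with 5 μg/ml 3′UTR-containing substrate RNA, 50 μM ATP/GTP/CTP, 2 μM UTP plus [3H]UTP, pH 7.5, 25° C for 60 min. TCA-precipitated RNA radioactivity was counted; IC50 from ± compound.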

[3] = HCV polymerase inhibitory activity (IC50), 1b, type 1b enzyme 0.5 μg/ml, 25° C., 60 min
[4] = HCV polymerase inhibitory activity (IC50), 1a, type 1a enzyme 1.5 μg/ml, 25° C., 60 min
[5] = HCV polymerase inhibitory activity IC50, 1b, type 1b enzyme
[6] = HCV polymerase inhibitory activity IC50, 1a, type 1a enzyme

SMILES: CN(C)c1ccc(CNC(=O)[C@H]2CN(c3cnc(C(=O)O)cn3)CCN2S(=O)(=O)c2ccc(OC(F)(F)F)cc2)cc1 [Example 399, (R)-3-(4-dimethylamino-benzylcarbamoyl)-4-(4-trifluoromethoxy-benzenesulfonyl)-3,4,5,6-tetrahydro-2H-[1,2′]bipyrazinyl-5′-carboxylic acid]
- IC50 [1, 3]: < 100 nM
- IC50 [2, 4]: < 100 nM

SMILES: O=C(NCc1ccc(C2CC2)cc1)[C@H]1CN(c2nc3ncncc3s2)CCN1S(=O)(=O)c1ccc(OC(F)(F)F)cc1 [Example 976, (R)-4-thiazolo[4,5-d]pyrimidin-2-yl-1-(4-trifluoromethoxy-benzenesulfonyl)-piperazine-2-carboxylic acid 4-cyclopropyl-benzylamide]
- IC50 [1, 5]: < 100 nM
- IC50 [2, 6]: < 100 nM

SMILES: CC(C)(O)c1ncc2sc(N3CCN(S(=O)(=O)c4ccc(OC(F)(F)F)cc4)[C@@H](C(=O)NCc4ccc(OC(F)(F)F)cc4)C3)nc2n1 [Example 1047, (R)-4-[5-(1-hydroxy-1-methyl-ethyl)-thiazolo[4,5-d]pyrimidin-2-yl]-1-(4-trifluoromethoxy-benzenesulfonyl)-piperazine-2-carboxylic acid 4-trifluoromethoxy-benzylamide]
- IC50 [1, 5]: < 100 nM
- IC50 [2, 6]: < 100 nM

SMILES: CC(C)c1ccc(S(=O)(=O)N2CCN(C(=O)C(C)(C)O)CC2C(=O)NCc2ccc(C(F)(F)F)cc2)cc1 (centres unmarked) [Example 56, 4-(2-hydroxy-2-methyl-propionyl)-1-(4-isopropyl-benzenesulfonyl)-piperazine-2-carboxylic acid 4-trifluoromethyl-benzylamide]
- IC50 [1, 3]: > 1000 nM
- IC50 [2, 4]: > 1000 nM

SMILES: CC(=O)N1CCN(S(=O)(=O)c2ccc(C(C)C)cc2)[C@@H](C(=O)NCc2ccc(Br)cc2Cl)C1 [Example 182, (R)-4-acetyl-1-(4-isopropyl-benzenesulfonyl)-piperazine-2-carboxylic acid 4-bromo-2-chloro-benzylamide]
- IC50 [1, 3]: 100 to 1000 nM
- IC50 [2, 4]: 100 to 1000 nM

SMILES: O=C(NCc1ccc(OC(F)F)cc1F)[C@H]1CN(c2nc3nc(C(F)(F)F)ncc3s2)CCN1S(=O)(=O)c1ccc(OC(F)(F)F)cc1 [Example 1044, (R)-1-(4-trifluoromethoxy-benzenesulfonyl)-4-(5-trifluoromethyl-thiazolo[4,5-d]pyrimidin-2-yl)-piperazine-2-carboxylic acid 4-difluoromethoxy-2-fluoro-benzylamide]
- IC50 [1, 5]: < 100 nM
- IC50 [2, 6]: < 100 nM

SMILES: O=C(NCc1ccc(OC(F)(F)F)cc1)[C@H]1CN(c2cnc3cnccc3n2)CCN1S(=O)(=O)c1ccc(OC(F)(F)F)cc1 [Example 745, (R)-4-pyrido[3,4-b]pyrazin-2-yl-1-(4-trifluoromethoxy-benzenesulfonyl)-piperazine-2-carboxylic acid 4-trifluoromethoxy-benzylamide]
- IC50 [1, 5]: < 100 nM
- IC50 [2, 6]: < 100 nM

SMILES: CCCc1ccc(CNC(=O)[C@H]2CN(c3nc(C)c(C(=O)O)s3)CCN2S(=O)(=O)c2ccc(OC(F)(F)F)c(CCC)c2)cc1 [Example 499, 4-methyl-2-[(R)-3-(4-propyl-benzylcarbamoyl)-4-(3-propyl-4-trifluoromethoxy-benzenesulfonyl)-piperazin-1-yl]-thiazole-5-carboxylic acid]
- IC50 [1, 3]: < 100 nM
- IC50 [2, 4]: < 100 nM

SMILES: CCCN(CCC)CCC(=O)N1CCN(S(=O)(=O)c2ccc(I)cc2)C(C(=O)NCc2ccc(N(C)C)cc2)C1 (centres unmarked) [Example 114, 4-(3-dipropylamino-propionyl)-1-(4-iodo-benzenesulfonyl)-piperazine-2-carboxylic acid 4-dimethylamino-benzylamide]
- IC50 [1, 3]: > 1000 nM
- IC50 [2, 4]: > 1000 nM

SMILES: COc1ccc(CNC(=O)[C@H]2CN(C(C)=O)CCN2S(=O)(=O)c2ccc(OC(F)(F)F)cc2)cc1 [Example 608, (R)-4-acetyl-1-(4-trifluoromethoxy-benzenesulfonyl)-piperazine-2-carboxylic acid 4-methoxy-benzylamide]
- IC50 [1, 3]: 100 to 1000 nM
- IC50 [2, 4]: 100 to 1000 nM
